Measured values taken from patent US20180002320A1, “USE OF MACROCYCLIC PICOLINAMIDES AS FUNGICIDES” (DOW AGROSCIENCES LLC, priority 2014, published 2018).
Like-named read-outs stand apart in the source and are kept apart here.

Experiments:
Zymoseptoria tritici = assay: Leaf Blotch of Wheat (SEPTTR) fungicidal activity; format: in vivo; conditions: Low Volume (121.5 g/H)
Experimental: Technical grades of materials were dissolved in acetone, which were then mixed with nine volumes of H2O containing 110 ppm Triton X-100. The fungicide solutions were applied onto wheat seedlings using an automated booth sprayer to run-off. All sprayed plants were allowed to air dry prior to further handling. All fungicides were evaluated using the aforementioned method for their activity vs. all target diseases, unless stated otherwise. Wheat leaf blotch and brown rust activity were also evaluated using track spray applications, in which case the fungicides were formulated as EC formulations, containing 0.1% Trycol 5941 in the spray solutions. Wheat plants (variety Yuma) were grown from seed in a greenhouse in 50% mineral soil/50% soil-less Metro mix until the first leaf was fully emerged, with 7-10 seedlings per pot. These plants were inoculated with an aqueous spore suspension of Zymoseptoria tritici either prior to or after fungicide treatments. After inoculation the plants were kept in 100% relative humidity (one day in a dark dew chamber followed by two to three days in a lighted dew chamber at 20° C.) to permit spores to germinate and infect the leaf. The plants were then transferred to a greenhouse set at 20° C. for disease to develop. When disease symptoms were fully expressed on the 1st leaves of untreated plants, infection levels were assessed on a scale of 0 to 100 percent disease severity. Percent disease control was calculated using the ratio of disease severity on treated plants relative to untreated plants.

Puccinia triticina = assay: Wheat Brown Rust (PUCCRT) fungicidal activity; format: in vivo; conditions: Low Volume (121.5 g/H)
Experimental: Technical grades of materials were dissolved in acetone, which were then mixed with nine volumes of H2O containing 110 ppm Triton X-100. The fungicide solutions were applied onto wheat seedlings using an automated booth sprayer to run-off. All sprayed plants were allowed to air dry prior to further handling. All fungicides were evaluated using the aforementioned method for their activity vs. all target diseases, unless stated otherwise. Wheat leaf blotch and brown rust activity were also evaluated using track spray applications, in which case the fungicides were formulated as EC formulations, containing 0.1% Trycol 5941 in the spray solutions. Wheat plants (variety Yuma) were grown from seed in a greenhouse in 50% mineral soil/50% soil-less Metro mix until the first leaf was fully emerged, with 7-10 seedlings per pot. These plants were inoculated with an aqueous spore suspension of Puccinia triticina either prior to or after fungicide treatments. After inoculation the plants were kept in a dark dew room at 22° C. with 100% relative humidity overnight to permit spores to germinate and infect the leaf. The plants were then transferred to a greenhouse set at 24° C. for disease to develop. Fungicide formulation, application and disease assessment followed the procedures as described in the Example A.

[1] = 24 h, 1 Day Protectant, read-out: SEPTTR 1DP disease control
[2] = 72 h, 3 Day Curative, read-out: SEPTTR 3DC disease control
[3] = 24 h, 1 Day Protectant, read-out: PUCCRT 1DP disease control
[4] = 72 h, 3 Day Curative, read-out: PUCCRT 3DC disease control

| Compound | pest or weed control at 121.5 g/ha (Zymoseptoria tritici; [1]) [%] | pest or weed control at 121.5 g/ha (Zymoseptoria tritici; [2]) [%] | pest or weed control at 121.5 g/ha (Puccinia triticina; [3]) [%] | pest or weed control at 121.5 g/ha (Puccinia triticina; [4]) [%] |
| --- | --- | --- | --- | --- |
| COc1ccnc(C(=O)N[C@H]2CCOC[C@H](Oc3ccccc3)[C@@H](Oc3ccccc3)[C@H](C)OC2=O)c1OCOC(C)=O [Compound 37] | > 80 | > 80 | > 80 | > 80 |
| CCCOC(=O)O[C@H]1CCCC[C@H](NC(=O)c2nccc(OC)c2OCOC(C)=O)C(=O)O[C@@H](C)[C@@H]1OCC(C)C [Compound 38] | > 80 | > 80 | > 80 | < 80 |
| COc1ccnc(C(=O)N[C@H]2CCOC[C@H](OC)[C@@H](Oc3ccccc3)[C@H](C)OC2=O)c1OCOC(C)=O [Compound 40] | > 80 | > 80 | > 80 | > 80 |
| CCCO[C@H]1COCC[C@H](NC(=O)c2nccc(OC)c2OCOC(C)=O)C(=O)O[C@@H](C)[C@@H]1Oc1ccccc1 [Compound 41] | > 80 | > 80 | > 80 | > 80 |
| CCCO[C@H]1[C@H](C)OC(=O)[C@@H](NC(=O)c2nccc(OC)c2OCOC(C)=O)CCOC[C@@H]1Oc1ccccc1 [Compound 42] | < 80 | < 80 | > 80 | < 80 |
| COc1ccnc(C(=O)N[C@H]2CCOC[C@H](OC(=O)C(C)C)[C@@H](Oc3ccccc3)[C@H](C)OC2=O)c1OCOC(C)=O [Compound 44] | < 80 | < 80 | > 80 | > 80 |
| COc1ccnc(C(=O)N[C@H]2CCOC[C@H](OCC(C)C)[C@@H](Oc3ccccc3)[C@H](C)OC2=O)c1OCOC(C)=O [Compound 45] | > 80 | > 80 | > 80 | > 80 |
| COc1ccnc(C(=O)N[C@H]2CCOC[C@H](Oc3ccccc3)[C@@H](OCC(C)C)[C@H](C)OC2=O)c1OCOC(C)=O [Compound 46] | > 80 | < 80 | > 80 | < 80 |
| COc1ccnc(C(=O)N[C@H]2CCOC[C@H](Oc3ccccc3)[C@@H](Oc3ccccc3)[C@H](C)OC2=O)c1OC(C)=O [Compound 47] | > 80 | > 80 | > 80 | > 80 |
| COc1ccnc(C(=O)N[C@H]2CCOC[C@H](OC)[C@@H](Oc3ccccc3)[C@H](C)OC2=O)c1OC(C)=O [Compound 48] | > 80 | > 80 | > 80 | > 80 |
| CC(=O)OCOc1cccnc1C(=O)N[C@H]1CCCC[C@H](CC2CCCC2)[C@@H](Oc2ccccc2)[C@H](C)OC1=O [Compound 49] | < 80 |  | > 80 | < 80 |
| COc1ccnc(C(=O)N[C@H]2CCCC[C@H](CC3CCCC3)[C@@H](Oc3ccccc3)[C@H](C)OC2=O)c1OCOC(C)=O [Compound 50] | > 80 | < 80 | > 80 | > 80 |
| CCOCC(=O)OCOc1c(OC)ccnc1C(=O)N[C@H]1CCCC[C@H](CC2CCCC2)[C@@H](Oc2ccccc2)[C@H](C)OC1=O [Compound 51, ((2-(((3S,8R,9R,10S)-8-(cyclopentylmethyl)-10-methyl-2-oxo-9-phenoxyoxecan-3-yl)carbamoyl)-4-methoxypyridin-3-yl)oxy)methyl 2-ethoxyacetate] | > 80 |  | > 80 | < 80 |
| COc1ccnc(C(=O)N[C@H]2CCCC[C@H](CC3CCCC3)[C@@H](Oc3ccccc3)[C@H](C)OC2=O)c1OC(C)=O [Compound 52] | > 80 |  | > 80 | < 80 |
| C=CCO[C@@H]1[C@@H](CC2CCCC2)CCCC[C@H](NC(=O)c2nccc(OC)c2OCOC(C)=O)C(=O)O[C@H]1C [Compound 53] |  | < 80 | < 80 |  |
| COc1ccnc(C(=O)N[C@H]2CCCC[C@H](CC3CCCC3)[C@@H](OC(=O)C(C)C)[C@H](C)OC2=O)c1OCOC(C)=O [Compound 54] | > 80 |  | > 80 | < 80 |
| CCOCC(=O)OCOc1c(OC)ccnc1C(=O)N[C@H]1CCCC[C@H](CC2CCCC2)[C@@H](OC(=O)C(C)C)[C@H](C)OC1=O [Compound 55] | < 80 | < 80 | > 80 | < 80 |
| COc1ccnc(C(=O)N[C@H]2CCCC[C@H](CC3CCCC3)[C@@H](OC(=O)C(C)C)[C@H](C)OC2=O)c1OC(C)=O [Compound 56, (2S,3R,4R,9S)-9-(3-acetoxy-4-methoxypicolinamido)-4-(cyclopentylmethyl)-2-methyl-10-oxooxecan-3-yl isobutyrate] | > 80 | < 80 | > 80 | < 80 |
| CCCO[C@@H]1[C@@H](CC2CCCC2)CCCC[C@H](NC(=O)c2nccc(OC)c2OCOC(C)=O)C(=O)O[C@H]1C [Compound 57] | < 80 |  | > 80 | < 80 |
| CCCO[C@@H]1[C@@H](CC2CCCC2)CCCC[C@H](NC(=O)c2nccc(OC)c2OC(C)=O)C(=O)O[C@H]1C [Compound 58] | < 80 | < 80 | > 80 | < 80 |
| COc1ccnc(C(=O)N[C@H]2CCCC[C@H](CC3CCCC3)[C@@H](OC)[C@H](C)OC2=O)c1OC(C)=O [Compound 59] | < 80 |  | > 80 | > 80 |
| COc1ccnc(C(=O)N[C@H]2CCCC[C@H](Cc3ccccc3)[C@@H](OC(=O)C(C)C)[C@H](C)OC2=O)c1OCOC(C)=O [Compound 60] | > 80 | > 80 | > 80 | > 80 |
| COc1ccnc(C(=O)N[C@H]2CCCC[C@H](CC3CCCC3)[C@@H](OC)[C@H](C)OC2=O)c1OCOC(C)=O [Compound 61] | < 80 | < 80 | > 80 | > 80 |
| COc1ccnc(C(=O)N[C@H]2CCCC[C@H](Cc3ccccc3)[C@@H](Oc3ccccc3)[C@H](C)OC2=O)c1OCOC(C)=O [Compound 62] | > 80 | > 80 | > 80 | < 80 |
| COc1ccnc(C(=O)N[C@H]2CCCC[C@H](Cc3ccccc3)[C@@H](Oc3ccccc3)[C@H](C)OC2=O)c1OC(C)=O [Compound 64] | > 80 | > 80 | > 80 | < 80 |
